# Publication PMC9895451, “Genetic and pharmacologic inhibition of ALDH1A3 as a treatment of β-cell failure” (Nature Communications, 2023)
# Biological target: T1, ALDH1A3 (Homo sapiens, UniProt P47895)
# T1 sequence (P47895 2-512): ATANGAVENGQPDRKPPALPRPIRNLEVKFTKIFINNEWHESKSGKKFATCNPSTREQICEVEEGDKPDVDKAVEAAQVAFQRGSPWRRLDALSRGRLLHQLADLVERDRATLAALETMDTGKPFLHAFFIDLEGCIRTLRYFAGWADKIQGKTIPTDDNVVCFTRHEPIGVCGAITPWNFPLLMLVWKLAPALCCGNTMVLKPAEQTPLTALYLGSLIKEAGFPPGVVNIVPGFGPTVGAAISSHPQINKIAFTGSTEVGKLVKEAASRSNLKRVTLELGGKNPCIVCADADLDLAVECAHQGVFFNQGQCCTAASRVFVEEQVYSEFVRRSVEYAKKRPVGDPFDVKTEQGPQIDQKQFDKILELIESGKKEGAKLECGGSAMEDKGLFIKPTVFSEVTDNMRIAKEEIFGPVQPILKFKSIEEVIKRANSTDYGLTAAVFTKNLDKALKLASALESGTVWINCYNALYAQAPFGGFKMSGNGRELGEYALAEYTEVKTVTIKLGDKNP
# Assay: Aldefluor assay in A375 cells; also recombinant human ALDH1a3 in crude bacterial lysate (resazurin/diaphorase-coupled)
# Assay type: cell-based
compound,measurement,value
CCc1cnccc1C(=O)Nc1cc2c(cc1F)NC(=O)CC2 [KOTX1],IC50,5.1 nM
